Experimental data published in patent US20230026856A1, “HETEROCYCLIC COMPOUNDS AND METHODS OF USE THEREOF” (SPARCBIO LLC, priority 2020, published 2023).

Key:
NCI-H358 cells = assay: 3D cell proliferation assay (Cell Titer-Glo 3D); type: cell-based; details: Homo sapiens, NCI-H358, 168 h, NCI-H358, 3D (ultra-low attachment); 7 days
Procedure: NCI-H358 cells (ATCC® CRL-5807™) were plated in a 384-well Black/Clear Round Bottom Ultra-Low Attachment Microplate (Corning) in medium (RPMI-1640+10% FBS) at a density of 1000 cells in 50 μL per well, then incubated overnight at 37° C. and 5% CO2. Cells were treated with test compounds at 9 concentrations within a specified concentration range (e.g., 0.5 nM-10 μM) for generation of dose response curves. Test compounds were prepared by 1:3 serial dilution in DMSO from a specified starting concentration (e.g., 20 μM, 2 μM or 0.2 μM) and then added to wells of the assay plate in a total volume of 150 nL DMSO. The cells were further incubated at 37° C. and 5% CO2 for 7 days. Cell viability was assessed by adding 40 μL of Cell Titer-Glo® 3D reagent (Cat. No.: G9683, Promega) to each well and reading luminescence after mixing and incubation of the samples. The IC50 value of each test compound was calculated with XLFit curve fitting software.

[1] = system: Phosphorylation of ERK in NCI-H358 cells; assay: pERK assay, Method II (homogeneous TR-FRET, phospho-ERK Thr202/Tyr204); type: cell-based; details: Homo sapiens, 4 hr compound treatment
Procedure: Method II. Phosphorylation of ERK was assessed by a homogeneous TR-FRET assay (Advanced phospho-ERK (Thr202/Tyr204) cellular kit; Cat. #64AERPEH, Cisbio). In brief, NCI-H358 cells were seeded in a 384-well culture plate at a density of 6000 cells in 40 μL medium/well and grown overnight at 37° C. and 5% CO2. Each test compound was dosed in duplicate in a 10-dose 3-fold titration starting at 10 μM or 2 μM. The culture plate was then incubated for 4 hr in the incubator. At the end of the compound treatment, the medium was removed, 35 μL of lysis buffer was added to each well, and the plate was agitated on a plate shaker for 40 mins at 4° C. An antibody cocktail of phospho-ERK1/2 Eu Cryptate antibody and Phospho-ERK1/2 d2 antibody was prepared by separately diluting the antibodies 20-fold with detection buffer and then mixing them together. 3.4 μL of antibody cocktail was dispensed to each well of an empty 384-well white ProxiPlus assay plate (Perkin Elmer), and the plate briefly centrifuged. 13.6 μL of cell lysate was then added to the antibody-containing wells, and the plate was briefly centrifuged and then incubated 2 hr at room temperature. The plate was read on a fluorescence plate reader (Envision2104, Perkin Elmer), with an excitation wavelength of 337 nm and emission wavelengths of 615 nm and 665 nm. The IC50 value of each test compound was calculated with XLFit curve fitting software. Results are shown in Table 6. ‘+++’ indicates IC50 values ≤300 nM, ‘++’ indicates IC50 values between 300 nM-3 μM, and ‘+’ indicates IC50 values ≥3 μM.

KRAS G12C protein [2] = biological target: T1, KRAS G12C protein (Homo sapiens, UniProt P01116, G12C); assay: Nucleotide exchange assay, Method III (TR-FRET, association of KRAS G12C with Raf-RBD, SOS1-mediated exchange); type: biochemical; details: overnight (18 hr) incubation with GDP-bound KRAS G12C
Procedure: Method III. Inhibition of SOS1-mediated exchange of GDP for GTP on the KRAS G12C protein was measured in a biochemical assay that monitors association of KRAS G12C protein with the Ras-binding domain of Raf (Raf-RBD), where the association is coupled to exchange of GDP to GTP on the KRAS G12C protein. The assay was performed at WuXi AppTec (Shanghai, China). Compounds were serially diluted in 3-fold dilutions to 11 concentrations and spotted into the wells of an assay plate in a total volume of 150 nL DMSO per well. A 2× enzyme mix was prepared by diluting GDP-bound, His-tagged KRAS G12C to 25 nM in assay buffer. 10 μL/well of 2× enzyme mix was added to all wells, and the plate was sealed and incubated overnight (18 hr) at 23° C. 4×SOS1/GDP and 4×SOS1/GTP were prepared in assay buffer. 5 μL/well of 4×SOS1/GDP mix was added to negative control wells, 5 μL/well of 4×SOS1/GTP mix was added to the remaining wells, and the plate was further incubated at 23° C. for 1 hr. Finally, FLAG-tagged Raf-RBD is added to the reaction mixture along with a pair of FRET donor- and acceptor-conjugated antibodies specific for the FLAG-tagged Raf-RBD and His-tagged KRAS G12C proteins. A 4× Raf-RBD/Tb-anti-FLAG/D2-anti-His mix was prepared in assay buffer, and 5 μL/well of the mix was added to all wells, followed by incubation at room temperature for 2 hr. The TR-FRET signals, which increase with association of KRAS G12C and Raf-RBD, were measured on a Perkin Elmer Envision 2104 plate reader, and data were analyzed by non-linear regression to obtain IC50 values for inhibition by compounds. Table 2 includes results of the assay of Method III. ‘+++’ indicates IC50 values ≤300 nM, ‘++’ indicates IC50 values between 300 nM-3 μM, and ‘+’ indicates IC50 values ≥3 μM.
Target sequence in this assay (P01116 1-188 isoform P01116-2 G12C): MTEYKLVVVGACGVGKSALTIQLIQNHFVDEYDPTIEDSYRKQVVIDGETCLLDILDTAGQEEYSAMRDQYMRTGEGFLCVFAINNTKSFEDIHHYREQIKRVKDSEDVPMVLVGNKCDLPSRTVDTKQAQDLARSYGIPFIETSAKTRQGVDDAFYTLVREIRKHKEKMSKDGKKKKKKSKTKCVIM

MIA PaCa-2 = assay: Cell proliferation assay panel (Cell Titer-Glo), MIA PaCa-2; type: cell-based; details: Homo sapiens, MIA PaCa-2, 72 h
Procedure: (§1) Potency of compounds was determined in cell proliferation assays in a panel of cancer cell lines. Cells were seeded in 384-well plates (Corning, Cat. #3765) at specified densities in 40 μL of culture medium and incubated overnight at 37° C. in a 5% CO2 incubator (culture conditions). With a robotic dispenser, serially diluted test compounds were added in a volume of 20 nL DMSO to wells in the culture plate to achieve the final desired concentrations of test compounds, and the cells were further incubated in culture conditions for 72 hr. The assay was terminated by addition of 25 μL of Cell Titer-Glo reagent (Promega, Madison, Wis.) to each well. Contents were mixed, the plate was incubated for 10 min at room temperature and luminescence was measured. The IC50 value of each test compound was calculated with XLFit curve fitting software. Results are shown in Table 4. ‘+++’ indicates IC50 values ≤300 nM, ‘++’ indicates IC50 values between 300 nM-3 μM, and ‘+’ indicates IC50 values ≥3 μM.

KRAS G12C protein [3] = biological target: T1, KRAS G12C protein; assay: Nucleotide exchange assay, Method I (BODIPY-GDP fluorescence, SOS1-mediated exchange of GDP for GTP); type: biochemical; details: 30 minutes incubation with KRAS G12C/BODIPY-GDP
Procedure: Method I. A biochemical assay to assess activity of test compounds in inhibiting SOS1-mediated exchange of GDP for GTP on the KRAS G12C protein was performed at Reaction Biology Corporation (Malvern, Pa., USA). In this assay, exchange of BODIPY-GDP to GTP results in the decrease in BODIPY-GDP fluorescence. Briefly, recombinant KRAS G12C protein (aa 2-169, prepared by Reaction Biology) was labelled with 5× excess of BODIPY-GDP. Excess BODIPY-GDP was separated from loaded protein using a gravity desalting column. Compounds were incubated with 0.15 μM KRAS G12C/BODIPY-GDP for 30 minutes. A mixture of GTP (25 μM) and SOS1 (70 nM; aa 564-1049, prepared by Reaction Biology) was added to the reaction to initiate the nucleotide exchange reaction. Reaction progress was monitored in real time (Ex/Em=(483/530)) in CLARIOstar (BMG LabTech). After signal normalization, the data were fitted using the “one phase exponential decay” model in GraphPad Prism and rate constants obtained. Rate constants were converted to % activity values which were fit to a 4-parameter sigmoidal dose-response curve in Prism to derive IC50 values for inhibition of exchange activity by test compounds.
Target sequence in this assay (P01116 2-169 isoform P01116-2 G12C): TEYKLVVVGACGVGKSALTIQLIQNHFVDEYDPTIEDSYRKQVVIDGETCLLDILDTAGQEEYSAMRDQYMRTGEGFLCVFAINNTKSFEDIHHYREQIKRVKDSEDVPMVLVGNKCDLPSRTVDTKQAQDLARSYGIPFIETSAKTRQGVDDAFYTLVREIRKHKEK

NCI-H2122 = assay: Cell proliferation assay panel (Cell Titer-Glo), NCI-H2122; type: cell-based; details: Homo sapiens, 72 hr
Procedure: as §1

KYSE-410 = assay: Cell proliferation assay panel (Cell Titer-Glo), KYSE-410; type: cell-based; details: Homo sapiens, 72 hr
Procedure: as §1

SW1573 = assay: Cell proliferation assay panel (Cell Titer-Glo), SW1573; type: cell-based; details: Homo sapiens, 72 hr
Procedure: as §1

NCI-H1373 = assay: Cell proliferation assay panel (Cell Titer-Glo), NCI-H1373; type: cell-based; details: Homo sapiens, 72 hr
Procedure: as §1

NCI-H2030 = assay: Cell proliferation assay panel (Cell Titer-Glo), NCI-H2030; type: cell-based; details: Homo sapiens, 72 hr
Procedure: as §1

NCI-H358 = assay: Cell proliferation assay panel (Cell Titer-Glo), NCI-H358; type: cell-based; details: Homo sapiens, 72 hr
Procedure: as §1

A549 = assay: Cell proliferation assay panel (Cell Titer-Glo), A549; type: cell-based; details: Homo sapiens, 72 hr
Procedure: as §1

| Structure (SMILES) | IC50 (NCI-H358 cells) | IC50 [1] | IC50 (KRAS G12C protein [2]) | IC50 (MIA PaCa-2) | IC50 (KRAS G12C protein [3]) | IC50 (NCI-H2122) | IC50 (KYSE-410) | IC50 (SW1573) | IC50 (NCI-H1373) | IC50 (NCI-H2030) | IC50 (NCI-H358) | IC50 (A549) |
| --- | --- | --- | --- | --- | --- | --- | --- | --- | --- | --- | --- | --- |
| C=CC(=O)N1CCN(c2c(C(=O)NCC)c(=O)n(-c3c(C)ccnc3C(C)C)c3nc(-c4c(O)cccc4F)c(F)cc23)CC1 (single isomer, unassigned) [293 (Isomer A), 4-(4-acryloylpiperazin-1-yl)-N-ethyl-6-fluoro-7-(2-fluoro-6-hydroxyphenyl)-1-(2-isopropyl-4-methylpyridin-3-yl)-2-oxo-1,2-dihydro-1,8-naphthyridine-3-carboxamide] | ≤ 100 nM | 300 to 3000 nM | ≤ 300 nM | 300 to 3000 nM | – | – | – | – | – | – | – | – |
| C=CC(=O)N1CCN(c2c(S(C)(=O)=O)c(=O)n(-c3c(C)ccnc3C(C)C)c3nc(-c4c(C)ccc5[nH]ncc45)c(F)cc23)CC1 (single isomer, unassigned) [124 (Isomer A), 4-(4-acryloylpiperazin-1-yl)-6-fluoro-1-(2-isopropyl-4-methylpyridin-3-yl)-7-(5-methyl-1H-indazol-4-yl)-3-(methylsulfonyl)-1,8-naphthyridin-2(1H)-one] | – | 300 to 3000 nM | ≤ 300 nM | 300 to 3000 nM | – | – | – | – | – | – | – | – |
| C=CC(=O)N1CCC(n2c(=O)c(=O)n(-c3c(C)ccnc3C(C)C)c3nc(-c4c(O)cccc4F)c(F)cc32)CC1 (single isomer, unassigned) [1 (Isomer B), 1-(1-acryloylpiperidin-4-yl)-7-fluoro-6-(2-fluoro-6-hydroxyphenyl)-4-(2-isopropyl-4-methylpyridin-3-yl)-1,4-dihydropyrido[2,3-b]pyrazine-2,3-dione] | – | – | – | – | ≥ 3000 nM | – | – | – | – | – | – | – |
| C=CC(=O)N1CCN(c2c(C(=O)NC)c(=O)n(-c3c(C)ccnc3C(C)C)c3nc(-c4c(O)cccc4F)c(F)cc23)CC1 (single isomer, unassigned) [84 (Isomer B), 4-(4-acryloylpiperazin-1-yl)-6-fluoro-7-(2-fluoro-6-hydroxyphenyl)-1-(2-isopropyl-4-methylpyridin-3-yl)-N-methyl-2-oxo-1,2-dihydro-1,8-naphthyridine-3-carboxamide] | – | – | – | 300 to 3000 nM | – | ≥ 3000 nM | ≥ 3000 nM | ≥ 3000 nM | ≥ 3000 nM | ≥ 3000 nM | ≤ 300 nM | ≥ 3000 nM |
| C=CC(=O)N1CCC(n2c(=O)c(=O)n(-c3c(C)ccnc3C(C)C)c3nc(-c4c(O)cccc4F)c(F)cc32)CC1 (single isomer, unassigned) [1 (Isomer A), 1-(1-acryloylpiperidin-4-yl)-7-fluoro-6-(2-fluoro-6-hydroxyphenyl)-4-(2-isopropyl-4-methylpyridin-3-yl)-1,4-dihydropyrido[2,3-b]pyrazine-2,3-dione] | – | – | 300 to 3000 nM | – | 300 to 3000 nM | – | – | – | – | – | – | – |
| C=CC(=O)N1CCN(c2c(S(C)(=O)=O)c(=O)n(-c3c(C)ccnc3C(C)C)c3nc(-c4c(O)cccc4F)c(F)cc23)CC1 (single isomer, unassigned) [123 (Isomer A), 4-(4-acryloylpiperazin-1-yl)-6-fluoro-7-(2-fluoro-6-hydroxyphenyl)-1-(2-isopropyl-4-methylpyridin-3-yl)-3-(methylsulfonyl)-1,8-naphthyridin-2(1H)-one] | ≤ 100 nM | ≤ 300 nM | ≤ 300 nM | 300 to 3000 nM | – | 300 to 3000 nM | ≥ 3000 nM | ≥ 3000 nM | ≥ 3000 nM | 300 to 3000 nM | ≤ 300 nM | ≥ 3000 nM |
| C=CC(=O)N1CCN(c2c(S(C)(=O)=O)c(=O)n(-c3c(C)ccnc3C(C)C)c3nc(-c4cccc5sc(N)nc45)c(F)cc23)CC1 (single isomer, unassigned) [250 (Isomer A), 4-(4-acryloylpiperazin-1-yl)-7-(2-aminobenzo[d]thiazol-4-yl)-6-fluoro-1-(2-isopropyl-4-methylpyridin-3-yl)-3-(methylsulfonyl)-1,8-naphthyridin-2(1H)-one] | – | ≤ 300 nM | ≤ 300 nM | 300 to 3000 nM | – | – | – | – | – | – | – | – |
